Laboratory results: paper PMC11940505, “Antivirulence Properties of Kuraridin Against Methicillin-Resistant Staphylococcus aureus (MRSA)” (Biomedicines, 2025)

Biological target: T1, Sortase A (SrtA) (Staphylococcus aureus, UniProt Q2FV99)
T1 construct: recombinant SrtA enzyme (BPS Bioscience)
Assay: fluorescence cleavage assay of Abz-LPETG-K(Dnp)-NH2 with recombinant SrtA
Type: biochemical

T1 sequence (Q2FV99 whole entry): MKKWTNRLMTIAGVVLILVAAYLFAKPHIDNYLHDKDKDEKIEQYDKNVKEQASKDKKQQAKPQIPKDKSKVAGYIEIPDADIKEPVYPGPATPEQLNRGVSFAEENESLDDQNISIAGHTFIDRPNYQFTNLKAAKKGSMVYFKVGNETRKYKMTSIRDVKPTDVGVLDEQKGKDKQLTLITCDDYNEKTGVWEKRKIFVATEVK

SMILES: C=C(C)[C@H](CC=C(C)C)Cc1c(O)cc(OC)c(C(=O)/C=C/c2ccc(O)cc2O)c1O [Kuraridin, (E)-1-[2,4-dihydroxy-6-methoxy-3-(5-methyl-2-prop-1-en-2-ylhex-4-enyl)phenyl]-3-(2,4-dihydroxyphenyl)prop-2-en-1-one]
- fluorescence cleavage assay of Abz-LPETG-K(Dnp)-NH2 with recombinant SrtA: LogIC50 1.699 ± 0.055
